Laboratory results from ChEMBL document CHEMBL5463723, “Data for DCP probe BIBO3304” (2023).

What was measured:
[1] = molecular target: Tyrosine-protein kinase Lck (Homo sapiens) (UniProt P06239); assay: Inhibitor of P56TYRKINLCK in the Eurofins Panlabs screen (BI) by FI - fluorescence intensity; settings: Compound concentration 10.0 uM
[2] = molecular target: Glycine receptor (Rattus norvegicus) (UniProt P22771+P24524+P07727+P20781); assay: Activity against GLYCINSTRS in the Eurofins Panlabs screen (BI) by Radioactive Assay; format: protein-complex assay; settings: Compound concentration 10.0 uM
Glycine receptor (Rattus norvegicus), sequence (P07727 whole entry, looked up): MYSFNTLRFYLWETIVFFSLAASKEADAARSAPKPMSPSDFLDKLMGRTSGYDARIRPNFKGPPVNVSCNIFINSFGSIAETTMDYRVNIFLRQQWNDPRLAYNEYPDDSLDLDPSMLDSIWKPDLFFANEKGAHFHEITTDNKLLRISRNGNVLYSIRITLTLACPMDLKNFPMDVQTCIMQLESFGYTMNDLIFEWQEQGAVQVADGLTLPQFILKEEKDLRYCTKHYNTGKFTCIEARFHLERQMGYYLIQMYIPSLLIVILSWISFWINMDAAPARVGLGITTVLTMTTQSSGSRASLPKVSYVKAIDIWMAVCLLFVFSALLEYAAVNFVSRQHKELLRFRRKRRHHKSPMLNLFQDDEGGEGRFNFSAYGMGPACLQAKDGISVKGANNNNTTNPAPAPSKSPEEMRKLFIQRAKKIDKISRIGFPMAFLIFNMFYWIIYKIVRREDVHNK
Glycine receptor (Rattus norvegicus), sequence (P20781 whole entry, looked up): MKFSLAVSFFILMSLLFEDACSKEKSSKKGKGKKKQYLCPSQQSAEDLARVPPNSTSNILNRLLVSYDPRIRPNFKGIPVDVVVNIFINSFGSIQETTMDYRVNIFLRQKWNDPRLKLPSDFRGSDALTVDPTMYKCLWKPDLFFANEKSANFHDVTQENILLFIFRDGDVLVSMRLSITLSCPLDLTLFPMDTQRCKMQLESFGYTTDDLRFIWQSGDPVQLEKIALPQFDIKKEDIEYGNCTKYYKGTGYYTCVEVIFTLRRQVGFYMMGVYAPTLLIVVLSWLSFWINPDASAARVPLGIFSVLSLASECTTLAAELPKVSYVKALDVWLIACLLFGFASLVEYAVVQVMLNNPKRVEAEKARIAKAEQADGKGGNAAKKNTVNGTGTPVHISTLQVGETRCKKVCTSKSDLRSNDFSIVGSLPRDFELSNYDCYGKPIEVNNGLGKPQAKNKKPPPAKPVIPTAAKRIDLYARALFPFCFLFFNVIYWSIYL
Glycine receptor (Rattus norvegicus), sequence (P22771 whole entry, looked up): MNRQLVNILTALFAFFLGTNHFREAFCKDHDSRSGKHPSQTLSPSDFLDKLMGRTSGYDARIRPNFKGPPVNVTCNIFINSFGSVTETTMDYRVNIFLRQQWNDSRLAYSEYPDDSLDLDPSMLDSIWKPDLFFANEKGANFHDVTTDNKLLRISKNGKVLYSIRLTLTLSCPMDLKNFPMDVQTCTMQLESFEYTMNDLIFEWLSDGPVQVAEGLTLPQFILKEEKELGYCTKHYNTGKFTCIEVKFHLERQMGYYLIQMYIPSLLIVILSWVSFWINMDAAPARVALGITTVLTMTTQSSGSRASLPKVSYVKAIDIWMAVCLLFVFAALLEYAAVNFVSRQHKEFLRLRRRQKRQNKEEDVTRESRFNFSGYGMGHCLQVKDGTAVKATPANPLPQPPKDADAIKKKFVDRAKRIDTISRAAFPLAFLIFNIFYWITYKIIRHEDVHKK
Glycine receptor (Rattus norvegicus), sequence (P24524 whole entry, looked up): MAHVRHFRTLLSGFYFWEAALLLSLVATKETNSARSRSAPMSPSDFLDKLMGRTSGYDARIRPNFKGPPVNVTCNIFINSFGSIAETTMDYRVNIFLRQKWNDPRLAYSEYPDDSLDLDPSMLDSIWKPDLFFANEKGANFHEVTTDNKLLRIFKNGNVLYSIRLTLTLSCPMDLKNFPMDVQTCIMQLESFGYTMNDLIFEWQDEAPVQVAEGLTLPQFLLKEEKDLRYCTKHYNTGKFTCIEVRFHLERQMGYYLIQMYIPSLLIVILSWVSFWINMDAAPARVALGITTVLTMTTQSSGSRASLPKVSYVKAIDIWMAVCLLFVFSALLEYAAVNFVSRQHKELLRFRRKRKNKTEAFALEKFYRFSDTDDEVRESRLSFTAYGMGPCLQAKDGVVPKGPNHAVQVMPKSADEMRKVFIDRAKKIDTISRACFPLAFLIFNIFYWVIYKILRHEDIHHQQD

[3] = molecular target: L-type calcium channel (dihydropyridine site), Cav1.2 alpha-1C (Rattus norvegicus, UniProt P22002); assay: Activity against CA+/DHPSI/RA in the Eurofins Panlabs screen (BI) by Radioactive Assay; settings: compound concentration 10 uM, read-out: % Ctrl
[4] = molecular target: Gastrin/cholecystokinin type B receptor (Mus musculus) (UniProt P56481); assay: Activity against CCKB/M in the Eurofins Panlabs screen (BI); settings: Compound concentration 10.0 uM
[5] = molecular target: Endothelin receptor type B (Rattus norvegicus) (UniProt P21451); assay: Activity against ETB/R in the Eurofins Panlabs screen (BI) by Radioactive Assay; settings: Compound concentration 10.0 uM
Endothelin receptor type B (Rattus norvegicus), sequence (P21451 whole entry): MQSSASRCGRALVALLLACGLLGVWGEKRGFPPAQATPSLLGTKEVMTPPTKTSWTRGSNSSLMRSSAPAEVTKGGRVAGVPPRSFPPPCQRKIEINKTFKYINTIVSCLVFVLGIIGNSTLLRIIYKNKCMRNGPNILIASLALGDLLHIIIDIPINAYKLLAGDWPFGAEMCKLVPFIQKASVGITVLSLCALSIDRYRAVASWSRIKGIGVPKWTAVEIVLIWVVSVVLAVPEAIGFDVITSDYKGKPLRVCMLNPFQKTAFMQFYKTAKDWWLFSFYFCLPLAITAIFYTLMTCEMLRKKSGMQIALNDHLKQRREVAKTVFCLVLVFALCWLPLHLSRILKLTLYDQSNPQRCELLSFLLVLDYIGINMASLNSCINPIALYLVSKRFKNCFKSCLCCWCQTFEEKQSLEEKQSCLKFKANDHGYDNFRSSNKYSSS

[6] = molecular target: 5-hydroxytryptamine receptor 2B (Homo sapiens) (UniProt P41595); assay: 5-HT2B Eurofins-Cerep binding assay; settings: Compound concentration 10.0 uM
[7] = molecular target: Carbonic anhydrase 6 (Homo sapiens) (UniProt P23280); assay: Inhibitor of CANHYDRASE in the Eurofins Panlabs screen (BI) by absorption of electromagnetic radiation; settings: Compound concentration 10.0 uM
[8] = molecular target: Nitric oxide synthase 3 (Rattus norvegicus) (UniProt Q62600); assay: Inhibitor of CNOS in the Eurofins Panlabs screen (BI) by Radioactive Assay; settings: Compound concentration 10.0 uM
[9] = molecular target: Alpha-2A adrenergic receptor (Oryctolagus cuniculus) (UniProt Q5ZQK3); assay: Activity against ALPHA2A/RB in the Eurofins Panlabs screen (BI) by Radioactive Assay; settings: Compound concentration 10.0 uM
[10] = molecular target: 5-hydroxytryptamine receptor 1B (Homo sapiens) (UniProt P28222); assay: 5-HT1B Eurofins-Cerep binding assay; parameters: ligand concentration 1 nM; settings: Compound concentration 10.0 uM
Oryctolagus cuniculus = species on record: Oryctolagus cuniculus; assay: Activity against 5HT3/RB in the Eurofins Panlabs screen (BI) by Radioactive Assay; settings: Compound concentration 10.0 uM
Rattus norvegicus = species on record: Rattus norvegicus; assay: Activity against BZD/CENTR/R in the Eurofins Cerep SafetyScreen44 (BI) by Radioactive Assay (Cerep_28); format: protein-complex assay; settings: Compound concentration 10.0 uM
[11] = molecular target: Histamine H1 receptor (Cavia porcellus) (UniProt P31389); assay: Activity against H1/CENT/GP in the Eurofins Panlabs screen (BI) by Radioactive Assay; settings: Compound concentration 10.0 uM
[12] = molecular target: Vasopressin V1a receptor (Homo sapiens) (UniProt P37288); assay: V1a Eurofins-Cerep binding assay; parameters: ligand concentration 0.3 nM; settings: Compound concentration 10.0 uM
[13] = molecular target: T1, Neuropeptide Y receptor type 2 (Homo sapiens, UniProt P49146); assay: Radioligand binding assay (NPY2R, BHK); format: cell-based, BHK-21
T1 sequence (P49146 whole entry): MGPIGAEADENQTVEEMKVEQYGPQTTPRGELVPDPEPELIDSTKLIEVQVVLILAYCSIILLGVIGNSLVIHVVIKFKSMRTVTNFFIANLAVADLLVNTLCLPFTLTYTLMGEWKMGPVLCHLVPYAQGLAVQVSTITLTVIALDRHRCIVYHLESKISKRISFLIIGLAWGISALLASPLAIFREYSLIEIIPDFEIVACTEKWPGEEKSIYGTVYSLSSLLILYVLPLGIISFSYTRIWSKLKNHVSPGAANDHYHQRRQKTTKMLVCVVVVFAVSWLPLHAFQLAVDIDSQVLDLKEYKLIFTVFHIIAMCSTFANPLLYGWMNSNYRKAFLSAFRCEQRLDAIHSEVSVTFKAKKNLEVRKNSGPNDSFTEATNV

[14] = molecular target: Potassium voltage-gated channel subfamily V member 1 (Rattus norvegicus) (UniProt P97557); assay: Activity against K+/KV/R in the Eurofins Panlabs screen (BI) by Radioactive Assay; settings: Compound concentration 10.0 uM
MAO-A = MAO-A (Homo sapiens, UniProt P21397); assay: Agonist activity in the Eurofins Cerep SafetyScreen44 (BI) against MAO-A_ANTAG by Scintillation counting (Cerep_443); parameters: scale not given: the % may be the effect or the level left; settings: rat; compound concentration 10 uM; target entry is the homologue from another species; read-out: % Ctrl
[15] = molecular target: Adenosine receptor A1 (Rattus norvegicus) (UniProt P25099); assay: Activity against A1/R in the Eurofins Panlabs screen (BI) by Radioactive Assay; settings: Compound concentration 10.0 uM
[16] = molecular target: Opioid receptor (Rattus norvegicus) (UniProt P33533+P34975+P33535); assay: Activity against OPIAT/NS in the Eurofins Panlabs screen (BI) by Radioactive Assay; format: protein assay; settings: Compound concentration 10.0 uM
[17] = molecular target: Tyrosine-protein kinase Fyn (Homo sapiens) (UniProt P06241); assay: Inhibitor of P59TYRKINFYN in the Eurofins Panlabs screen (BI) by FI - fluorescence intensity; settings: Compound concentration 10.0 uM
Tyrosine-protein kinase Fyn (Homo sapiens), sequence (P06241 2-537 limits assumed): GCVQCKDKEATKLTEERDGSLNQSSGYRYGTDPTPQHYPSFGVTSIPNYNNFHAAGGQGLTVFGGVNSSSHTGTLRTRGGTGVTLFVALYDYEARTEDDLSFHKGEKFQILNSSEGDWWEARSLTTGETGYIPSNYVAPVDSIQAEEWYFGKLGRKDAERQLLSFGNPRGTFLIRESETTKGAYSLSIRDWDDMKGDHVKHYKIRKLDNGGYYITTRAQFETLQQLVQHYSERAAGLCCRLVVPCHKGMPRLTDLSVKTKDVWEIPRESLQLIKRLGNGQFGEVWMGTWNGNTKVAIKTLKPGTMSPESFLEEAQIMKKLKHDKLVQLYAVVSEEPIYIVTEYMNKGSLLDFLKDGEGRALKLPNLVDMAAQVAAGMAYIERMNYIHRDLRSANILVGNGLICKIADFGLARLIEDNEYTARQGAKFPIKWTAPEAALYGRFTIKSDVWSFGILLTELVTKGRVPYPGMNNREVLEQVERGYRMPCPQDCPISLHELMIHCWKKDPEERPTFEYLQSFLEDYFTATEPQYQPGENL

[18] = molecular target: Protein kinase C beta type (Homo sapiens) (UniProt P05771); assay: Inhibitor of PKCBETA in the Eurofins Panlabs screen (BI) by Radioactive Assay; settings: Compound concentration 10.0 uM
[19] = molecular target: Thyrotropin-releasing hormone receptor (Rattus norvegicus) (UniProt Q01717); assay: Activity against TRH/R in the Eurofins Panlabs screen (BI) by Radioactive Assay; settings: Compound concentration 10.0 uM
[20] = molecular target: Delta-type opioid receptor (Homo sapiens) (UniProt P41143); assay: delta (DOP) Eurofins-Cerep binding assay; parameters: ligand concentration 0.5 nM; settings: Compound concentration 10.0 uM
[21] = molecular target: Cholecystokinin receptor type A (Rattus norvegicus) (UniProt P30551); assay: Activity against CCKA/R in the Eurofins Panlabs screen (BI) by Radioactive Assay; settings: Compound concentration 10.0 uM
[22] = molecular target: Polyunsaturated fatty acid lipoxygenase ALOX15 (Oryctolagus cuniculus) (UniProt P12530); assay: Inhibitor of 15LO in the Eurofins Panlabs screen (BI) by absorption of electromagnetic radiation; settings: Compound concentration 30.0 uM
Polyunsaturated fatty acid lipoxygenase ALOX15 (Oryctolagus cuniculus), sequence (P12530 whole entry): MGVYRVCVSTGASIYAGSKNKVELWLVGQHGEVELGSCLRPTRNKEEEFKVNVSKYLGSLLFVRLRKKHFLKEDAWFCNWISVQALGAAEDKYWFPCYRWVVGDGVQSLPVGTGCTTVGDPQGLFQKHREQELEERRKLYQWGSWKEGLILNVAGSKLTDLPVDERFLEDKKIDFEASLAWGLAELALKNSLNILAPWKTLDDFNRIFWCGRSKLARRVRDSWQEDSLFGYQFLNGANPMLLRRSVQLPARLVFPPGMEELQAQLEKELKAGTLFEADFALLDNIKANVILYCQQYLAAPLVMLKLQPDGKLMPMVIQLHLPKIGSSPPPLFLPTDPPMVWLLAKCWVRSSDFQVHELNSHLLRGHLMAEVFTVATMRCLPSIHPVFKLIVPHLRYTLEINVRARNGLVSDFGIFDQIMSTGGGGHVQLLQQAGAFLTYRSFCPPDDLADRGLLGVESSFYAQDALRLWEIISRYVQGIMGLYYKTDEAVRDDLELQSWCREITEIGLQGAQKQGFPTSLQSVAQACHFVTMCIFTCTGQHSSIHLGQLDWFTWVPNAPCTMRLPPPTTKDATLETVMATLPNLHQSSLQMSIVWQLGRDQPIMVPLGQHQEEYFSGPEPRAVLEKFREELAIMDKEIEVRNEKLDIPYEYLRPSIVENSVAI

[23] = molecular target: Cysteinyl leukotriene receptor 1 (Cavia porcellus) (UniProt Q2NNR5); assay: Activity against LTD4/GP in the Eurofins Panlabs screen (BI) by Radioactive Assay; settings: Compound concentration 10.0 uM
[24] = molecular target: 5-hydroxytryptamine receptor 1A (Rattus norvegicus) (UniProt P19327); assay: Activity against 5HT1A/R in the Eurofins Panlabs screen (BI) by Radioactive Assay; settings: Compound concentration 10.0 uM
5-hydroxytryptamine receptor 1A (Rattus norvegicus), sequence (P19327 whole entry): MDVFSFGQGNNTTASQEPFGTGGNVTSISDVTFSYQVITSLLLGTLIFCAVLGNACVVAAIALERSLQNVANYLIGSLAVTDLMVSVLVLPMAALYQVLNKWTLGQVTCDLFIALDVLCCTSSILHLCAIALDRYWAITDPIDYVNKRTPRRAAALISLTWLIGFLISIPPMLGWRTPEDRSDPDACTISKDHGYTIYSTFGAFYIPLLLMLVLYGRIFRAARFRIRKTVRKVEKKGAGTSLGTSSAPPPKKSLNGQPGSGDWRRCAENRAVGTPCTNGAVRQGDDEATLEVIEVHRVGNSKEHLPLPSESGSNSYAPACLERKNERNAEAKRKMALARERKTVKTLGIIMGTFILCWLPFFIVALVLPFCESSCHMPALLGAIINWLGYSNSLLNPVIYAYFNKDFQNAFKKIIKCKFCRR

[25] = molecular target: Androgen receptor (Homo sapiens) (UniProt P10275); settings: Compound concentration 10.0 uM
Description: Activity against ANDROGEN/H in the Eurofins Cerep SafetyScreen44 (BI) by Radioactive Assay (Cerep_933)

Mus musculus = species on record: Mus musculus; assay: Inhibitor of PHORBOLE/M in the Eurofins Panlabs screen (BI) by Radioactive Assay; settings: Compound concentration 10.0 uM
[26] = molecular target: Mu-type opioid receptor (Cavia porcellus) (UniProt P97266); assay: Activity against MU/GP in the Eurofins Panlabs screen (BI) by Radioactive Assay; settings: Compound concentration 10.0 uM
Mu-type opioid receptor (Cavia porcellus), sequence (P97266 whole entry): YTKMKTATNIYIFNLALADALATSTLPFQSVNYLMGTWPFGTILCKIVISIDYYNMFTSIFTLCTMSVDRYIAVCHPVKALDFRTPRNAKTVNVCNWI

[27] = molecular target: Leukotriene A-4 hydrolase (Cavia porcellus) (UniProt P19602); assay: Inhibitor of LTA4HYD in the Eurofins Panlabs screen (BI) by Radioactive Assay; settings: Compound concentration 100.0 uM
[28] = molecular target: Interleukin-1 receptor type 1 (Mus musculus) (UniProt P13504); assay: Activity against IL-1ALPHA/M in the Eurofins Panlabs screen (BI) by Radioactive Assay; settings: Compound concentration 10.0 uM
Interleukin-1 receptor type 1 (Mus musculus), sequence (P13504 whole entry): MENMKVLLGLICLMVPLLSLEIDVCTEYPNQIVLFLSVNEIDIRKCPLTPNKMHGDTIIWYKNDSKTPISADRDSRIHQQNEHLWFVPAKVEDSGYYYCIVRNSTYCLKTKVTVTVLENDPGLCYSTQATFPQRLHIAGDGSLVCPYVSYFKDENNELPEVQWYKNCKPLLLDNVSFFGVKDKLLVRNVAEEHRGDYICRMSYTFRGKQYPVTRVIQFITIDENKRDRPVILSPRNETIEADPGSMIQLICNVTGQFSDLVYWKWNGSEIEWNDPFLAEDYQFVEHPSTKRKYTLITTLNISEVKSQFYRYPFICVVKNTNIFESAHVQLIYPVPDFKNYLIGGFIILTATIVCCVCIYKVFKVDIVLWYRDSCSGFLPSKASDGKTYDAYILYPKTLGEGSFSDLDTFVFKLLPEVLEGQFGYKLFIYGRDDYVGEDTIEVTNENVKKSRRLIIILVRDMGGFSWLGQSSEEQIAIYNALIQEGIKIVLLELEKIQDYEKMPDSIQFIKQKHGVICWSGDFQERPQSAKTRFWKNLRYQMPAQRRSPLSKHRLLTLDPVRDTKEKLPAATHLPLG

[29] = molecular target: C-X-C chemokine receptor type 2 (Homo sapiens) (UniProt P25025); assay: Activity against IL-8/H in the Eurofins Panlabs screen (BI) by Radioactive Assay; settings: Compound concentration 10.0 uM
C-X-C chemokine receptor type 2 (Homo sapiens), sequence (P25025 whole entry): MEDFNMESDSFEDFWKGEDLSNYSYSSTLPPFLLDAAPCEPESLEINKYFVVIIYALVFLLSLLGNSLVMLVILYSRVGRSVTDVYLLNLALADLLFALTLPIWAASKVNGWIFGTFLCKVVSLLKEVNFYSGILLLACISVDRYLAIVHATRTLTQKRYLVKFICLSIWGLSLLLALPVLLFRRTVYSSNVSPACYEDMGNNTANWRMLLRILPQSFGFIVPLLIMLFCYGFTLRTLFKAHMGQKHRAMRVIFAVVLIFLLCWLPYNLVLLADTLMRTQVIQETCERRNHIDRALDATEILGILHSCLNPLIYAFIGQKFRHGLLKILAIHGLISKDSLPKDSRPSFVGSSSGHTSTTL

[30] = molecular target: Angiotensin-converting enzyme (Homo sapiens) (UniProt P12821); assay: Activity against ACE(HU_AMTCH400) in the Eurofins Cerep SafetyScreen44 (BI) by Photometry (Cerep_3441); settings: Compound concentration 10.0 uM

residual activity [1]: 97% | residual activity [2]: 81% | residual activity [4]: 117% | residual activity [5]: 98% | residual activity [6]: 57% | residual activity [7]: 96% | residual activity [8]: 104% | residual activity [9]: 82% | residual activity [10]: 60% | residual activity (Oryctolagus cuniculus): 99% | residual activity [11]: 102% | residual activity [12]: 29% | IC50 [13]: > 1000 nM (not active) | residual activity [14]: 89% | residual activity [15]: 99% | residual activity [16]: 114% | residual activity [17]: 84% | residual activity [18]: 89% | residual activity [19]: 84% | residual activity [20]: 80% | residual activity [21]: 87% | residual activity [22]: 118% | residual activity [23]: 109% | residual activity [24]: 81% | residual activity [25]: 91% | residual activity (Mus musculus): 95% | residual activity [26]: 104% | residual activity [27]: 102% | residual activity [28]: 88% | residual activity [29]: 100%
Structure (SMILES): N=C(N)NCCC[C@@H](NC(=O)C(c1ccccc1)c1ccccc1)C(=O)NCc1ccc(CNC(N)=O)cc1
activity at 10 µM [3]: 82% (not active) | residual activity (Rattus norvegicus): 83% | activity at 10 µM (MAO-A): 97% (not active) | residual activity [30]: 103%
